What was measured:
Assay type in all cases: cell-based
[1] = tested on: Staphylococcus aureus, ATCC 29213; assay: MIC, NCCLS/CLSI guidelines (Example 5), strain A; conditions: relative to wildtype Plectasin; average of two independent experiments
Experimental: (§1) Plectasin wild-type (SEQ ID NO: 1) and several variants of Plectasin were expressed and purified. The Minimal Inhibitory Concentration (MIC) was determined to test for their antimicrobial activity following the NCCLS guidelines from CLSI (Clinical and Laboratory Standards Institute; formerly known as National Committee for Clinical and Laboratory Standards).
(§2) The peptides were tested against the following strains: • A: Staphylococcus aureus, ATCC 29213; • B: Staphylococcus aureus, ATCC 25923; • C: Staphylococcus aureus, ATCC 29737; • D: Staphylococcus aureus, MRSA ST5 (2001), multi-resistant clinical human isolate from Statens Serum Institut, Denmark; • E: Staphylococcus aureus, MRSA ST80 (2003), multi-resistant clinical human isolate from Statens Serum Institut, Denmark.
(§3) All MIC values represent an average of two independent experiments; and all results in Table 5 are expressed relative to wildtype Plectasin:
(§4) 0: >100% of Plectasin wildtype MIC; 1: 80-100% of Plectasin wildtype MIC; 2: 50-80% of Plectasin wildtype MIC; 3: <50% of Plectasin wildtype MIC.

[2] = tested on: Staphylococcus aureus, ATCC 25923; assay: MIC, NCCLS/CLSI guidelines (Example 5), strain B; conditions: relative to wildtype Plectasin; average of two independent experiments
Experimental: as §1, §2, §3, §4

[3] = tested on: Staphylococcus aureus, ATCC 29737; assay: MIC, NCCLS/CLSI guidelines (Example 5), strain C; conditions: relative to wildtype Plectasin; average of two independent experiments
Experimental: as §1, §2, §3, §4

[4] = tested on: Staphylococcus aureus, MRSA ST5 (2001); assay: MIC, NCCLS/CLSI guidelines (Example 5), strain D; conditions: relative to wildtype Plectasin; average of two independent experiments
Experimental: as §1, §2, §3, §4

[5] = tested on: Staphylococcus aureus, MRSA ST80 (2003); assay: MIC, NCCLS/CLSI guidelines (Example 5), strain E; conditions: relative to wildtype Plectasin; average of two independent experiments
Experimental: as §1, §2, §3, §4

[6] = tested on: panel of 6 different strains of Staphylococcus aureus; assay: Average MIC, NCCLS/CLSI guidelines using caMHB (Example 6); conditions: average over 6 S. aureus strains, duplicate; MIC above 32 counted as 64; read after 18-24 hours at 37° C.
Experimental: A large number of antimicrobial peptides of the invention were tested against a panel of 6 different strains of Staphylococcus aureus listed below:
Staphylococcus aureus, ATCC29213, MSSA, NCCLS reference strain; Staphylococcus aureus, ATCC25923, MSSA, NCCLS reference strain; Staphylococcus aureus, ATCC29737, MSSA; Staphylococcus aureus, E33235, MSSA; Staphylococcus aureus, 698-01, MRSA ST5, Str, Kan, Oxa; Staphylococcus aureus, 566-03, MRSA ST80, Oxa, Tet, Fus, Kan.
The staphylococci were exposed to the following peptide concentrations: 32; 16; 8; 4; 2; 1; 0.5; 0.25; 0.13; […]; and 0.03 microgram/mL. All peptides were purified, HPLC quantified and the concentrated peptides (>160 micrograms/mL) were diluted to 160 micrograms/mL in peptide dilution buffer (0.1% BSA, 0.01% Acetic Acid).
The MIC determination was done essentially as described by NCCLS/CLSI guidelines using caMHB. The MICs were read after 18-24 hours of 37° C. incubations and recorded along with the CFU in the table below.
A total number of 95 antimicrobial peptides of the invention were evaluated in duplicate against the 6 bacterial strains described above.
In the majority of the double determinations (93%), the MIC varied <2 fold. An average MIC is tabulated below. If the MIC was above 32 micrograms/mL, a value of 64 was used to calculate the average.

[7] = tested on: Staphylococcus carnosus ATCC51365; assay: Yeast screening assay: radial diffusion assay of yeast supernatants; set-up: key: An activity of 3 is better than Plectasin; An activity of 2 corresponds to the activity of Plectasin; 1 is worse than Plectasin; conditions: yeast supernatant, clearing zone in radial diffusion assay
Outline: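 Supernatants from S. cerevisiae expressing plectasin variants, grown 3 days at 30 °C in galactose medium, were applied to agarose containing 5×10^5 cfu/mL S. carnosus. Plates were incubated 3 h at 37 °C, overlaid, left overnight and MTT-stained. Clearing zones were scored as 2 = plectasin-like, 3 = better, 1 = worse.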

Row | Substance | Relative MIC, strain A [1] | Relative MIC, strain B [2] | Relative MIC, strain C [3] | Relative MIC, strain D [4] | Relative MIC, strain E [5] | Average MIC [6] [micrograms/mL] | Activity (antimicrobial activity relative to the activity of plectasin) [7]
1 | D9N + M13L + Q14R: variant of Plectasin (SEQ ID NO: 1) (GFGCNGPWNEDDLRCHNHCKSIKGYKGGYCAKGGFVCKCY) | 3 (<50% of Plectasin wildtype MIC) | 3 (<50% of Plectasin wildtype MIC) | 3 (<50% of Plectasin wildtype MIC) | 3 (<50% of Plectasin wildtype MIC) | 3 (<50% of Plectasin wildtype MIC) | 1 | –
2 | N5G + D9S + M13L + N17Q + A31T: variant of Plectasin (SEQ ID NO: 1) (GFGCGGPWSEDDLQCHQHCKSIKGYKGGYCTKGGFVCKCY) | 3 (<50% of Plectasin wildtype MIC) | 3 (<50% of Plectasin wildtype MIC) | 3 (<50% of Plectasin wildtype MIC) | 3 (<50% of Plectasin wildtype MIC) | 3 (<50% of Plectasin wildtype MIC) | 3 | –
3 | N5G + M13L: variant of Plectasin (SEQ ID NO: 1) (GFGCGGPWDEDDLQCHNHCKSIKGYKGGYCAKGGFVCKCY) | 2 (50-80% of Plectasin wildtype MIC) | 3 (<50% of Plectasin wildtype MIC) | 3 (<50% of Plectasin wildtype MIC) | 3 (<50% of Plectasin wildtype MIC) | 3 (<50% of Plectasin wildtype MIC) | 4 | –
4 | M13V + N17T: variant of Plectasin (SEQ ID NO: 1) (GFGCNGPWDEDDVQCHTHCKSIKGYKGGYCAKGGFVCKCY) | – | 3 (<50% of Plectasin wildtype MIC) | 3 (<50% of Plectasin wildtype MIC) | 3 (<50% of Plectasin wildtype MIC) | 3 (<50% of Plectasin wildtype MIC) | 3 | –
5 | N5S + D9A + K26R: variant of Plectasin (SEQ ID NO: 1) (GFGCSGPWAEDDMQCHNHCKSIKGYRGGYCAKGGFVCKCY) | 3 (<50% of Plectasin wildtype MIC) | 3 (<50% of Plectasin wildtype MIC) | 3 (<50% of Plectasin wildtype MIC) | 3 (<50% of Plectasin wildtype MIC) | 3 (<50% of Plectasin wildtype MIC) | 3 | –
6 | N5S + M13W + N17R: variant of Plectasin (SEQ ID NO: 1) (GFGCSGPWDEDDWQCHRHCKSIKGYKGGYCAKGGFVCKCY) | 3 (<50% of Plectasin wildtype MIC) | – | 3 (<50% of Plectasin wildtype MIC) | 3 (<50% of Plectasin wildtype MIC) | 3 (<50% of Plectasin wildtype MIC) | 2 | –
7 | N5S + D9S + M13V + N17R: variant of Plectasin (SEQ ID NO: 1) (GFGCSGPWSEDDVQCHRHCKSIKGYKGGYCAKGGFVCKCY) | 3 (<50% of Plectasin wildtype MIC) | 3 (<50% of Plectasin wildtype MIC) | 3 (<50% of Plectasin wildtype MIC) | 3 (<50% of Plectasin wildtype MIC) | 3 (<50% of Plectasin wildtype MIC) | 2 | –
8 | N5S + D9S + M13L + Q14R + N17V + A31S: variant of Plectasin (SEQ ID NO: 1) (GFGCSGPWSEDDLRCHVHCKSIKGYKGGYCSKGGFVCKCY) | 3 (<50% of Plectasin wildtype MIC) | 3 (<50% of Plectasin wildtype MIC) | 3 (<50% of Plectasin wildtype MIC) | 3 (<50% of Plectasin wildtype MIC) | 3 (<50% of Plectasin wildtype MIC) | 2 | –
9 | M13G + N17R + G33A: variant of Plectasin (SEQ ID NO: 1) (GFGCNGPWDEDDGQCHRHCKSIKGYKGGYCAKAGFVCKCY) | 3 (<50% of Plectasin wildtype MIC) | 3 (<50% of Plectasin wildtype MIC) | 3 (<50% of Plectasin wildtype MIC) | 3 (<50% of Plectasin wildtype MIC) | 3 (<50% of Plectasin wildtype MIC) | 2 | –
10 | GFGCNGPWSEDDMQCHNHCKSIKGYKGGYCAKGGFVCKCY [Mutation D9S] | 2 (50-80% of Plectasin wildtype MIC) | 3 (<50% of Plectasin wildtype MIC) | 3 (<50% of Plectasin wildtype MIC) | 2 (50-80% of Plectasin wildtype MIC) | – | 7 | 3
11 | N5R + M13Y + N17R: variant of Plectasin (SEQ ID NO: 1) (GFGCRGPWDEDDYQCHRHCKSIKGYKGGYCAKGGFVCKCY) | 3 (<50% of Plectasin wildtype MIC) | 3 (<50% of Plectasin wildtype MIC) | 3 (<50% of Plectasin wildtype MIC) | 3 (<50% of Plectasin wildtype MIC) | 3 (<50% of Plectasin wildtype MIC) | 1 | –
12 | GFGCNGPWDEDDMFCHNHCKSIKGYKGGYCAKGGFVCKCY [Mutation Q14F] | 1 (80-100% of Plectasin wildtype MIC) | – | 3 (<50% of Plectasin wildtype MIC) | 2 (50-80% of Plectasin wildtype MIC) | 3 (<50% of Plectasin wildtype MIC) | 5 | 3
13 | GFGCSGPWDEDDMRCHSHCKSIRGYKGGYCAKGGFVCKCY [N5S + Q14R + N17S + K23R] | 1 (80-100% of Plectasin wildtype MIC) | 3 (<50% of Plectasin wildtype MIC) | 3 (<50% of Plectasin wildtype MIC) | 3 (<50% of Plectasin wildtype MIC) | – | 8 | 3
14 | N5R + M13V: variant of Plectasin (SEQ ID NO: 1) (GFGCRGPWDEDDVQCHNHCKSIKGYKGGYCAKGGFVCKCY) | 3 (<50% of Plectasin wildtype MIC) | – | 3 (<50% of Plectasin wildtype MIC) | 2 (50-80% of Plectasin wildtype MIC) | 3 (<50% of Plectasin wildtype MIC) | 5 | –
15 | M13F + Q14K + K26R: variant of Plectasin (SEQ ID NO: 1) (GFGCNGPWDEDDFKCHNHCKSIKGYRGGYCAKGGFVCKCY) | 3 (<50% of Plectasin wildtype MIC) | – | 3 (<50% of Plectasin wildtype MIC) | 3 (<50% of Plectasin wildtype MIC) | 3 (<50% of Plectasin wildtype MIC) | 6 | –
16 | GFGCNGPWDEDDMQCHNHCKSIKRYKGGYCAKGGFVCKCY [Mutation G24R] | 1 (80-100% of Plectasin wildtype MIC) | 2 (50-80% of Plectasin wildtype MIC) | – | 2 (50-80% of Plectasin wildtype MIC) | 2 (50-80% of Plectasin wildtype MIC) | 8 | 2

— patent US20100120690A1, “Polypeptides Having Antimicrobial Activity and Polynucleotides Encoding Same” (Novozymes Adenium Biotech A/S, priority 2005, published 2010)
